These compounds were tested on Vero (assay: Cytotoxicity against African green monkey Vero cells assessed as reduction in cell viability after 3 days by hemocytometer). Conditions: chlorocebus sabaeus, 72 h.
Assay type: cell-based

First: CC(C)C[C@H](NC(=O)[C@H](Cc1cccc2ccccc12)NC(=O)OCc1ccccc1)C(=O)N[C@@H](C[C@@H]1CCCNC1=O)C(O)S(=O)(=O)O (some centres undefined)
Second: CC(C)C[C@H](NC(=O)[C@H](Cc1cccc2ccccc12)NC(=O)OCc1ccccc1)C(=O)N[C@H](C=O)C[C@@H]1CCCNC1=O
The CC50 of the first is higher: greater than 100 µM for the first, 19.8 µM for the second.

First: CC(C)C[C@H](NC(=O)[C@H](Cc1cccc2ccccc12)NC(=O)OCc1ccccc1)C(=O)NC(C[C@@H]1CCNC1=O)C1OC1S(C)(=O)=O (some centres undefined)
Second: CC(C)C[C@H](NC(=O)[C@H](Cc1cccc2ccccc12)NC(=O)OCc1ccccc1)C(=O)N[C@H](CCl)C[C@@H]1CCCNC1=O
The CC50 of the first is higher: greater than 100 µM for the first, 51.7 µM for the second.

First: CC(C)C[C@H](NC(=O)[C@H](Cc1cccc2ccccc12)NC(=O)OCc1ccccc1)C(=O)N[C@H](CO)Cn1ccnn1
Second: CC(C)C[C@H](NC(=O)[C@H](Cc1cccc2ccccc12)NC(=O)OCc1ccccc1)C(=O)N[C@H](CO)CCC(=O)N1CCC1
The CC50 of the first is 2.7-fold lower: 3.2 µM for the first, 8.6 µM for the second.

These compounds were tested against Nonstructural polyprotein (Norovirus Hu/GI/10360/2010/VNM, UniProt I1U3K2) (assay: (§1) Inhibition of Norovirus prototypic GI.1 3CL protease using HiLyte Fluor 488-labelled DFELQGPK as substrate incubated for 90 mins measured every mins for 20 mins by FRET assay). Conditions: not given.
Set-up: species or system Norovirus GI.1

Sequence of Nonstructural polyprotein (I1U3K2 whole entry): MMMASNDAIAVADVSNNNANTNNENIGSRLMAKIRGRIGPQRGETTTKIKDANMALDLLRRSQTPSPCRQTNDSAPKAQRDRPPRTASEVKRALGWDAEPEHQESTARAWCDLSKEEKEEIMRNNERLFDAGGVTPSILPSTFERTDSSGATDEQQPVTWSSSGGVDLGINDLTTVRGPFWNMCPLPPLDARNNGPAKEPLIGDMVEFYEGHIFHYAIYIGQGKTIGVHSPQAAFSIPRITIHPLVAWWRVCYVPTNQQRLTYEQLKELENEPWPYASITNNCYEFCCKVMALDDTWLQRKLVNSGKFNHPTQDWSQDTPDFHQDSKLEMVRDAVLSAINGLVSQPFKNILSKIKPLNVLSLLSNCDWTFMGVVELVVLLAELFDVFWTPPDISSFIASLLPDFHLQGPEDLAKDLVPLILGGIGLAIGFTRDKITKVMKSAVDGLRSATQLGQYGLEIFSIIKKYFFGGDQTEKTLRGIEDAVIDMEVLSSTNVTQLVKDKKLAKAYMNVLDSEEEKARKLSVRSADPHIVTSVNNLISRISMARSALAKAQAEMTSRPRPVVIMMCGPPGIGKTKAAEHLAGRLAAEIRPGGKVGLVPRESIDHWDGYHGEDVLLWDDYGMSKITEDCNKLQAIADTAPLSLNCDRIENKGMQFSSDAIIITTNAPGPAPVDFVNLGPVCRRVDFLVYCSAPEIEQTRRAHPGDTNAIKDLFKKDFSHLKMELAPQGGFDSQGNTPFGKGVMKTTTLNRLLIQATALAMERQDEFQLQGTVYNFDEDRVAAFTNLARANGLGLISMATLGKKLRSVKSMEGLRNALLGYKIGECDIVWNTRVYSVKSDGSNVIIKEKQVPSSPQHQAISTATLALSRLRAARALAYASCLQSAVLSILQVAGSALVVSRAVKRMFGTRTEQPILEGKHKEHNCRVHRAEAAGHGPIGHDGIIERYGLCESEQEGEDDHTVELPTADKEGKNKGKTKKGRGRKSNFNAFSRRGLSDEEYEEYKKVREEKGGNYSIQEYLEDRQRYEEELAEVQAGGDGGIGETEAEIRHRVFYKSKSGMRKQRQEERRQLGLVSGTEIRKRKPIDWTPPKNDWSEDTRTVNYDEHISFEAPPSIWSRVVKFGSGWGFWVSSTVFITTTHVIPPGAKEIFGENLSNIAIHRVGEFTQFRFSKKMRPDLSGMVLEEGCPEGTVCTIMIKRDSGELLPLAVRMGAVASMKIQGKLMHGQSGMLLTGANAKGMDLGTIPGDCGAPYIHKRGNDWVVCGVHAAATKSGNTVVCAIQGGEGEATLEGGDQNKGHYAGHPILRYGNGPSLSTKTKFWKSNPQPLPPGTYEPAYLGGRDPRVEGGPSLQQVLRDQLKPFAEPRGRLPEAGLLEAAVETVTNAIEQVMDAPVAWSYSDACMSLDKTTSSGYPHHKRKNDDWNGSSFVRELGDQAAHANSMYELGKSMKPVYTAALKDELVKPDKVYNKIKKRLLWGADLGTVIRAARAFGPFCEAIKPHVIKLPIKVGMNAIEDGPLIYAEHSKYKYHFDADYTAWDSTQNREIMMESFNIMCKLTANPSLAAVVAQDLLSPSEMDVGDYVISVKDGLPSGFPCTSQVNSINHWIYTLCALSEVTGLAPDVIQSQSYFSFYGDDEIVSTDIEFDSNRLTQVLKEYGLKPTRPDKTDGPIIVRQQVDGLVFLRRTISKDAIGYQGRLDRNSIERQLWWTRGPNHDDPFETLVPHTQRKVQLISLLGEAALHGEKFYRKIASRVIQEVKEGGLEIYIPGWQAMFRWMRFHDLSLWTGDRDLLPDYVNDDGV

Going from CC(C)C[C@H](NC(=O)[C@H](Cc1cccc2ccccc12)NC(=O)OCc1ccccc1)C(=O)N[C@@H](C[C@@H]1CCCNC1=O)C(O)S(=O)(=O)O (some centres undefined) to CC(C)C[C@H](NC(=O)[C@H](Cc1cccc2ccccc12)NC(=O)OCc1ccccc1)C(=O)N[C@H](C=O)C[C@@H]1CCCNC1=O, the IC50 falls from 0.654 µM to 0.08 µM (8.2-fold). The second is the more potent here.

CC(C)C[C@H](NC(=O)[C@H](Cc1cccc2ccccc12)NC(=O)OCc1ccccc1)C(=O)NC(C[C@@H]1CCNC1=O)C1OC1S(C)(=O)=O (some centres undefined) and CC(C)C[C@H](NC(=O)[C@H](Cc1cccc2ccccc12)NC(=O)OCc1ccccc1)C(=O)N[C@H](CO)CCC(=O)N1CCC1 cannot be ordered by IC50: greater than 10 µM for the first, greater than 1 µM for the second.

With CC(C)C[C@H](NC(=O)[C@H](Cc1cccc2ccccc12)NC(=O)OCc1ccccc1)C(=O)N[C@H](CO)Cn1ccnn1 the IC50 was greater than 1 µM.

The compounds below were run against Nonstructural polyprotein (Norovirus Hu/GI/10360/2010/VNM) (UniProt I1U3K2) (assay: as §1). Conditions: Norovirus GI.1.
Sequence of Nonstructural polyprotein (Norovirus Hu/GI/10360/2010/VNM) (I1U3K2 as listed by the source): as the sequence (I1U3K2 whole entry) above

Going from CC(C)C[C@H](NC(=O)[C@H](Cc1cccc2ccccc12)NC(=O)OCc1ccccc1)C(=O)N[C@@H](C[C@@H]1CCCNC1=O)C(O)S(=O)(=O)O (some centres undefined) to CC(C)C[C@H](NC(=O)[C@H](Cc1cccc2ccccc12)NC(=O)OCc1ccccc1)C(=O)N[C@H](C=O)C[C@@H]1CCCNC1=O, the IC90 falls from 2.24 µM to 0.155 µM (14-fold).

These compounds were tested on Norovirus (assay: Antiviral activity against Norovirus prototypic GI.1 infected in human HG23 cells assessed as inhibition of viral RNA replication at 10 uM after 4 days by RT-qPCR method relative to control). Conditions: HG23, 96 h.
Assay type: functional, Norovirus GI.1

CC(C)C[C@H](NC(=O)[C@H](Cc1cccc2ccccc12)NC(=O)OCc1ccccc1)C(=O)N[C@H](CO)Cn1ccnn1 was tested, and the inhibition at 10 µM was 99%.

These compounds were tested against T1, Protease (Norovirus Hu/GII.4-2002/WeertE022/2002/NL) (UniProt G1FEK8) (assay: (§2) Inhibition of Norovirus prototypic GII.4 3CL protease using HiLyte Fluor 488-labelled DFELQGPK as substrate incubated for 90 mins measured every mins for 20 mins by FRET assay). Conditions: Norovirus GII.4.
T1 sequence (whole entry): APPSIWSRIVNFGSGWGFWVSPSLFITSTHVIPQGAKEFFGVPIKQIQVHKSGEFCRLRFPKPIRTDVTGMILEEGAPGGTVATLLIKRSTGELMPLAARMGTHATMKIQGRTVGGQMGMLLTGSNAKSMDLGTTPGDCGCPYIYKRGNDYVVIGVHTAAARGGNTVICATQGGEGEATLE

First: CC(C)C[C@H](NC(=O)[C@H](Cc1cccc2ccccc12)NC(=O)OCc1ccccc1)C(=O)N[C@@H](C[C@@H]1CCCNC1=O)C(O)S(=O)(=O)O (some centres undefined)
Second: CC(C)C[C@H](NC(=O)[C@H](Cc1cccc2ccccc12)NC(=O)OCc1ccccc1)C(=O)N[C@H](C=O)C[C@@H]1CCCNC1=O
The IC90 of the first is 12-fold higher: 14 µM for the first, 1.19 µM for the second.

Compared with CC(C)C[C@H](NC(=O)[C@H](Cc1cccc2ccccc12)NC(=O)OCc1ccccc1)C(=O)NC(C[C@@H]1CCNC1=O)C1OC1S(C)(=O)=O (some centres undefined), CC(C)C[C@H](NC(=O)[C@H](Cc1cccc2ccccc12)NC(=O)OCc1ccccc1)C(=O)N[C@H](CO)CCC(=O)N1CCC1 is lower in IC90: greater than 100 µM for the first, 5.54 µM for the second.

Each compound was assayed against T2, Protease (Norovirus Hu/GII.4-2002/WeertE022/2002/NL, UniProt G1FEK8) (assay: as §2). Conditions: not given.
T2 sequence (G1FEK8 whole entry): T1 sequence (whole entry)
Set-up: species or system Norovirus GII.4

Going from CC(C)C[C@H](NC(=O)[C@H](Cc1cccc2ccccc12)NC(=O)OCc1ccccc1)C(=O)N[C@@H](C[C@@H]1CCCNC1=O)C(O)S(=O)(=O)O (some centres undefined) to CC(C)C[C@H](NC(=O)[C@H](Cc1cccc2ccccc12)NC(=O)OCc1ccccc1)C(=O)N[C@H](C=O)C[C@@H]1CCCNC1=O, the IC50 falls from 2.63 µM to 0.15 µM (18-fold). The second is the more potent here.

First: CC(C)C[C@H](NC(=O)[C@H](Cc1cccc2ccccc12)NC(=O)OCc1ccccc1)C(=O)NC(C[C@@H]1CCNC1=O)C1OC1S(C)(=O)=O (some centres undefined)
Second: CC(C)C[C@H](NC(=O)[C@H](Cc1cccc2ccccc12)NC(=O)OCc1ccccc1)C(=O)N[C@H](CCl)C[C@@H]1CCCNC1=O
The IC50 of the first is lower: 30 µM for the first, greater than 100 µM for the second. The first is the more potent here.

Going from CC(C)C[C@H](NC(=O)[C@H](Cc1cccc2ccccc12)NC(=O)OCc1ccccc1)C(=O)N[C@H](CO)Cn1ccnn1 to CC(C)C[C@H](NC(=O)[C@H](Cc1cccc2ccccc12)NC(=O)OCc1ccccc1)C(=O)N[C@H](CO)CCC(=O)N1CCC1, the IC50 falls from greater than 10 µM to 0.502 µM.

Each compound was assayed on CCRF-CEM (assay: Cytotoxicity against human CEM cells assessed as reduction in cell viability after 6 days by trypan blue exclusion assay). Conditions: 144 h.
Assay type: cell-based

Going from CC(C)C[C@H](NC(=O)[C@H](Cc1cccc2ccccc12)NC(=O)OCc1ccccc1)C(=O)N[C@@H](C[C@@H]1CCCNC1=O)C(O)S(=O)(=O)O (some centres undefined) to CC(C)C[C@H](NC(=O)[C@H](Cc1cccc2ccccc12)NC(=O)OCc1ccccc1)C(=O)N[C@H](C=O)C[C@@H]1CCCNC1=O, the CC50 rises from 18.3 µM to 31.6 µM (1.7-fold).

Compared with CC(C)C[C@H](NC(=O)[C@H](Cc1cccc2ccccc12)NC(=O)OCc1ccccc1)C(=O)NC(C[C@@H]1CCNC1=O)C1OC1S(C)(=O)=O (some centres undefined), CC(C)C[C@H](NC(=O)[C@H](Cc1cccc2ccccc12)NC(=O)OCc1ccccc1)C(=O)N[C@H](CCl)C[C@@H]1CCCNC1=O is 2.4-fold lower in CC50: 63.9 µM for the first, 26.6 µM for the second.

First: CC(C)C[C@H](NC(=O)[C@H](Cc1cccc2ccccc12)NC(=O)OCc1ccccc1)C(=O)N[C@H](CO)Cn1ccnn1
Second: CC(C)C[C@H](NC(=O)[C@H](Cc1cccc2ccccc12)NC(=O)OCc1ccccc1)C(=O)N[C@H](CO)CCC(=O)N1CCC1
The CC50 of the first is 7.3-fold lower: 0.3 µM for the first, 2.2 µM for the second.

What follows are compounds tested on Norovirus (assay: Antiviral activity against Norovirus prototypic GI.1 infected in human HG23 cells assessed as inhibition of viral RNA replication after 4 days by RT-qPCR method). Conditions: not given.
Assay type: functional, organism-based, Norovirus GI.1

CC(C)C[C@H](NC(=O)[C@H](Cc1cccc2ccccc12)NC(=O)OCc1ccccc1)C(=O)N[C@H](CO)Cn1ccnn1 was tested, and the EC50 was “Nd(Toxic)”.

Same assay, conditions: Norovirus, HG23, 96 h

Going from CC(C)C[C@H](NC(=O)[C@H](Cc1cccc2ccccc12)NC(=O)OCc1ccccc1)C(=O)N[C@@H](C[C@@H]1CCCNC1=O)C(O)S(=O)(=O)O (some centres undefined) to CC(C)C[C@H](NC(=O)[C@H](Cc1cccc2ccccc12)NC(=O)OCc1ccccc1)C(=O)N[C@H](C=O)C[C@@H]1CCCNC1=O, the EC90 falls from 2.45 µM to 0.92 µM (2.7-fold).

First: CC(C)C[C@H](NC(=O)[C@H](Cc1cccc2ccccc12)NC(=O)OCc1ccccc1)C(=O)NC(C[C@@H]1CCNC1=O)C1OC1S(C)(=O)=O (some centres undefined)
Second: CC(C)C[C@H](NC(=O)[C@H](Cc1cccc2ccccc12)NC(=O)OCc1ccccc1)C(=O)N[C@H](CO)CCC(=O)N1CCC1
The EC90 of the first is higher: greater than 20 µM for the first, 17.3 µM for the second.

Same assay, conditions: Norovirus, HG23, 96 h; read-out: EC50

CC(C)C[C@H](NC(=O)[C@H](Cc1cccc2ccccc12)NC(=O)OCc1ccccc1)C(=O)N[C@@H](C[C@@H]1CCCNC1=O)C(O)S(=O)(=O)O (some centres undefined) and CC(C)C[C@H](NC(=O)[C@H](Cc1cccc2ccccc12)NC(=O)OCc1ccccc1)C(=O)N[C@H](C=O)C[C@@H]1CCCNC1=O are within 1.5-fold of each other in EC50: 0.39 µM for the first, 0.42 µM for the second.

First: CC(C)C[C@H](NC(=O)[C@H](Cc1cccc2ccccc12)NC(=O)OCc1ccccc1)C(=O)NC(C[C@@H]1CCNC1=O)C1OC1S(C)(=O)=O (some centres undefined)
Second: CC(C)C[C@H](NC(=O)[C@H](Cc1cccc2ccccc12)NC(=O)OCc1ccccc1)C(=O)N[C@H](CCl)C[C@@H]1CCCNC1=O
The EC50 of the first is lower: 4.33 µM for the first, greater than 10 µM for the second. The first is the more potent here.

CC(C)C[C@H](NC(=O)[C@H](Cc1cccc2ccccc12)NC(=O)OCc1ccccc1)C(=O)N[C@H](CO)CCC(=O)N1CCC1 gave an EC50 of 6.19 µM.

These compounds were tested on PBMC (assay: Cytotoxicity against human PBMC assessed as reduction in cell viability after 6 days by trypan blue exclusion assay). Conditions: 144 h.
Assay type: cell-based

First: CC(C)C[C@H](NC(=O)[C@H](Cc1cccc2ccccc12)NC(=O)OCc1ccccc1)C(=O)N[C@@H](C[C@@H]1CCCNC1=O)C(O)S(=O)(=O)O (some centres undefined)
Second: CC(C)C[C@H](NC(=O)[C@H](Cc1cccc2ccccc12)NC(=O)OCc1ccccc1)C(=O)N[C@H](C=O)C[C@@H]1CCCNC1=O
The CC50 of the first is 1.9-fold higher: 43.8 µM for the first, 23.6 µM for the second.

Compared with CC(C)C[C@H](NC(=O)[C@H](Cc1cccc2ccccc12)NC(=O)OCc1ccccc1)C(=O)NC(C[C@@H]1CCNC1=O)C1OC1S(C)(=O)=O (some centres undefined), CC(C)C[C@H](NC(=O)[C@H](Cc1cccc2ccccc12)NC(=O)OCc1ccccc1)C(=O)N[C@H](CCl)C[C@@H]1CCCNC1=O is lower in CC50: greater than 100 µM for the first, 75 µM for the second.

First: CC(C)C[C@H](NC(=O)[C@H](Cc1cccc2ccccc12)NC(=O)OCc1ccccc1)C(=O)N[C@H](CO)Cn1ccnn1
Second: CC(C)C[C@H](NC(=O)[C@H](Cc1cccc2ccccc12)NC(=O)OCc1ccccc1)C(=O)N[C@H](CO)CCC(=O)N1CCC1
The CC50 of the first is 9.7-fold lower: 1.9 µM for the first, 18.4 µM for the second.

What follows are compounds tested on Huh-7 (assay: Cytotoxicity against human HuH7 cells assessed as reduction in cell viability). Conditions: not given.
Assay type: cell-based

First: CC(C)C[C@H](NC(=O)[C@H](Cc1cccc2ccccc12)NC(=O)OCc1ccccc1)C(=O)N[C@@H](C[C@@H]1CCCNC1=O)C(O)S(=O)(=O)O (some centres undefined)
Second: CC(C)C[C@H](NC(=O)[C@H](Cc1cccc2ccccc12)NC(=O)OCc1ccccc1)C(=O)N[C@H](C=O)C[C@@H]1CCCNC1=O
The CC50 of the first is 2.3-fold lower: 11.2 µM for the first, 25.7 µM for the second.

CC(C)C[C@H](NC(=O)[C@H](Cc1cccc2ccccc12)NC(=O)OCc1ccccc1)C(=O)N[C@H](CO)Cn1ccnn1 was tested, and the CC50 was 2.7 µM.

Reference: ChEMBL document CHEMBL4118198, “Synthesis and antiviral evaluation of novel peptidomimetics as norovirus protease inhibitors” (Bioorg Med Chem Lett, 2018)
